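Values below derive from 48-hour exposures of cells grown in 96-well plates, with endpoints linearly interpolated between the two concentrations bracketing the appropriate inhibition level. TGI: total growth inhibition.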
Key:
Assay in all cases: DTP human tumour cell line panel, 48 h
SNB-75 CNS = test system: SNB-75 CNS
DMS 273 small cell lung = test system: DMS 273 small cell lung
HT29 colon = test system: HT29 colon
SN12C renal = test system: SN12C renal
MOLT-4 leukemia = test system: MOLT-4 leukemia
OVCAR-3 ovarian = test system: OVCAR-3 ovarian
LXFL 529 NSCLC = test system: LXFL 529 NSCLC
ACHN renal = test system: ACHN renal
NCI-H460 lung = test system: NCI-H460 lung
HCT-15 colon = test system: HCT-15 colon
IGROV1 ovarian = test system: IGROV1 ovarian
KM12 colon = test system: KM12 colon
TK-10 renal = test system: TK-10 renal
HOP-62 NSCLC = test system: HOP-62 NSCLC
OVCAR-4 ovarian = test system: OVCAR-4 ovarian
HCT-116 colon = test system: HCT-116 colon
SK-MEL-2 melanoma = test system: SK-MEL-2 melanoma
CCRF-CEM leukemia = test system: CCRF-CEM leukemia
M19-MEL melanoma = test system: M19-MEL melanoma
HL-60(TB) leukemia = test system: HL-60(TB) leukemia
NCI-H23 lung = test system: NCI-H23 lung
UACC-257 melanoma = test system: UACC-257 melanoma
OVCAR-8 ovarian = test system: OVCAR-8 ovarian
KM20L2 colon = test system: KM20L2 colon
EKVX NSCLC = test system: EKVX NSCLC
UO-31 renal = test system: UO-31 renal
UACC-62 melanoma = test system: UACC-62 melanoma
SW-620 colon = test system: SW-620 colon
SNB-19 CNS = test system: SNB-19 CNS
HOP-92 NSCLC = test system: HOP-92 NSCLC
SNB-78 CNS = test system: SNB-78 CNS
HCC-2998 colon = test system: HCC-2998 colon
A549 NSCLC = test system: A549 NSCLC
U251 CNS = test system: U251 CNS
DMS 114 small cell lung = test system: DMS 114 small cell lung
SF-539 CNS = test system: SF-539 CNS
M14 melanoma = test system: M14 melanoma
RPMI-8226 leukemia = test system: RPMI-8226 leukemia
RXF 393 renal = test system: RXF 393 renal
COLO 205 colon = test system: COLO 205 colon
LOX IMVI melanoma = test system: LOX IMVI melanoma
K-562 leukemia = test system: K-562 leukemia
SK-MEL-5 melanoma = test system: SK-MEL-5 melanoma
HOP-18 NSCLC = test system: HOP-18 NSCLC
OVCAR-5 ovarian = test system: OVCAR-5 ovarian
SK-MEL-28 melanoma = test system: SK-MEL-28 melanoma
SF-268 CNS = test system: SF-268 CNS
SR leukemia = test system: SR leukemia
786-0 renal = test system: 786-0 renal
NCI-H522 lung = test system: NCI-H522 lung
SF-295 CNS = test system: SF-295 CNS
A498 renal = test system: A498 renal
RXF-631 renal = test system: RXF-631 renal
NCI-H226 lung = test system: NCI-H226 lung
DLD-1 colon = test system: DLD-1 colon
MALME-3M melanoma = test system: MALME-3M melanoma
XF 498 CNS = test system: XF 498 CNS
SK-OV-3 ovarian = test system: SK-OV-3 ovarian

Measured: TGI

O=C1CCC(c2ccccc2)=NN1c1nsc2ccccc12
not listed: 786-0 renal | NCI-H522 lung | SF-295 CNS | A498 renal | RXF-631 renal | NCI-H226 lung | DLD-1 colon | MALME-3M melanoma | XF 498 CNS | SK-OV-3 ovarian
> 100 µM: all other assays above

COc1ccc(OCC(=O)O)c2c1CCCC2=O
not listed: KM20L2 colon | HOP-18 NSCLC
> 100 µM: all other assays above

Reference: PubChem BioAssay (NCI)
